The source of these data is US11427548B2 (Arvinas Operations, Inc., priority 2015, dated 2022).

For the assay, the target named is T1, Androgen Receptor (Homo sapiens, UniProt P10275).
T1 construct: endogenous in cells; host or cells: VCaP cells
T1 sequence (P10275 1-920): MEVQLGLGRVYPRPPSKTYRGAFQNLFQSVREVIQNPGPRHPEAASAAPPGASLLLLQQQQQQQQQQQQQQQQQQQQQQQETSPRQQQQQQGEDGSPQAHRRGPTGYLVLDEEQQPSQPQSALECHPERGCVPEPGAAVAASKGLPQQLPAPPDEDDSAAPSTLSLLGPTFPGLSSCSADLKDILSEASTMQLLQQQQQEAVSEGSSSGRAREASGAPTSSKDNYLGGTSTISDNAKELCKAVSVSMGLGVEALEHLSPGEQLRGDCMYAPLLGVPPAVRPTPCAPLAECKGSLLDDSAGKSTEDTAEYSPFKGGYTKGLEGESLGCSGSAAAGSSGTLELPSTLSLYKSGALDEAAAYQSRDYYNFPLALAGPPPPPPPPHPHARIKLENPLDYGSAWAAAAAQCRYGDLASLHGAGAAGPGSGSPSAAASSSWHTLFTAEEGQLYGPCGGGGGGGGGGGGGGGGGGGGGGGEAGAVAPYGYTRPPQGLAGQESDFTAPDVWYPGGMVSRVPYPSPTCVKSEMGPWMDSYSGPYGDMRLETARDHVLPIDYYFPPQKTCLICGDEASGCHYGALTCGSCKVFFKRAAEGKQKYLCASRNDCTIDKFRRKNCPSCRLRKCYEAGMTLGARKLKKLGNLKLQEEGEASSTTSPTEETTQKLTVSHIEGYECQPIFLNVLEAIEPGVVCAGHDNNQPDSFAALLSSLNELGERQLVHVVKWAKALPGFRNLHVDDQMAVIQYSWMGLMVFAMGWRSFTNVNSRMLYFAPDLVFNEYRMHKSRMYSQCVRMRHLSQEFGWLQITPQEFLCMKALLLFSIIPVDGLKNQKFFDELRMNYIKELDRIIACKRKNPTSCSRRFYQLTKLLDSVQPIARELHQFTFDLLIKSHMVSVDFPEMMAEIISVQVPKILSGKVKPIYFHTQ
In words: Androgen Receptor ELISA assay (PathScan AR ELISA) in VCaP cells: AR degradation, Dmax and DC50. The class given is cell-based. Summed up: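 VCaP cells in phenol red-free RPMI with 5% charcoal-stripped FBS were grown at least 3 days, then given compound as 7 half-log doses in 0.1% DMSO with 0.1 nM R1881 for 24 h. Lysates went into a sandwich AR ELISA with TMB read at 450 nm.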
(An ELISA detects its analyte on a solid surface through an enzyme-linked reagent.)

Where [1] appears, read: VCaP cells; Table 36; read-out: VCaP DC50.
Setting [2] is: VCaP, VCaP cells; Table 36; read-out: VCaP Dmax (%).
Setting [3] is: VCaP, read-out: VCaP Dmax (%), VCaP cells; Table 36.

Where two headings read alike, the source gives them in different places. Bounds are passed on as bounds.

In general, DC50 refers to the concentration giving 50% degradation. The term Dmax denotes the largest share of the target that was removed. As to `CO[C@@H]1C[C@@H](C(=O)N(C)Cc2ccc(-c3scnc3C)cc2)N(C(=O)[C@@H](N(C)C(=O)COCCCCCN(C)c2ccc(C(=O)N(C)[C@H]3C(C)(C)[C@H](Oc4ccc(C#N)c(C(F)(F)F)c4)C3(C)C)nc2)C(C)(C)C)C1` [Example 709, N-((1r,3r)-3-(4-cyano-3-(trifluoromethyl)phenoxy)-2,2,4,4-tetramethylcyclobutyl)-5-((5-(2-(((S)-1-((2S,4R)-4-methoxy-2-(methyl(4-(4-methylthiazol-5-yl)benzyl)carbamoyl)pyrrolidin-1-yl)-3,3-dimethyl-1-oxobutan-2-yl)(methyl)amino)-2-oxoethoxy)pentyl)(meth-yl)amino)-N-methylpicolinamide], under setting [1], the DC50 is greater than 0.501 µM. Moreover, the Dmax under setting [2] was less than 25%.
Consider `Cc1ncsc1-c1ccc(CNC(=O)[C@@H]2C[C@@H](O)CN2C(=O)[C@@H](NC(=O)CN2CCN(CCCc3cn(-c4ccc(C(=O)N[C@H]5C(C)(C)[C@H](Oc6ccc(C#N)c(C(F)(F)F)c6)C5(C)C)cc4)nn3)CC2)C(C)(C)C)cc1` [Example 710, (2S,4R)-1-((S)-2-(2-(4-(3-(1-(4-(((1r,3r)-3-(4-cyano-3-(trifluoromethyl)phenoxy)-2,2,4,4-tetramethylcyclobutyl)carbamoyl)phenyl)-1H-1,2,3-triazol-4-yl)propyl)piperazin-1-yl)acetamido)-3,3-dimethylbutanoyl)-4-hydroxy-N-(4-(4-methylthiazol-5-yl)benzyl)pyrrolidine-2-carboxamide], for which the DC50 under setting [1] was less than 0.05 µM. Moreover, the Dmax (VCaP, read-out: VCaP Dmax (%)) was in the range of 51 to 70%.
With `Cc1ncsc1-c1ccc(CNC(=O)[C@@H]2C[C@@H](O)CN2C(=O)C(NC(=O)COCCN2CCN(c3ccc(C(=O)N[C@H]4C(C)(C)[C@H](Oc5ccc(C#N)c(C(F)(F)F)c5)C4(C)C)cn3)C(=O)C2)C(C)(C)C)cc1` (stereo partly drawn) [Example 711, N-((1r,3r)-3-(4-cyano-3-(trifluoromethyl)phenoxy)-2,2,4,4-tetramethylcyclobutyl)-6-(4-(2-(2-(((S)-1-((2S,4R)-4-hydroxy-2-((4-(4-methylthiazol-5-yl)benzyl)carbamoyl)pyrrolidin-1-yl)-3,3-dimethyl-1-oxobutan-2-yl)amino)-2-oxoethoxy)ethyl)-2-oxopiperazin-1-yl)nicotinamide], the “VCaP Dmax (%)” value (VCaP cells; Table 36) is “+ (Dmax ≤ 25%)”. For the same compound, the DC50 under setting [1] was less than 0.05 µM.
`Cc1ncsc1-c1ccc([C@H](NC(=O)[C@@H]2C[C@@H](O)CN2C(=O)[C@@H](NC(=O)CN2CCN(CCCc3ccc(C(=O)N[C@H]4C(C)(C)[C@H](Oc5ccc(C#N)c(C(F)(F)F)c5)C4(C)C)cc3)CC2)C(C)(C)C)C2COC2)cc1` [Example 712, (2S,4R)-1-((S)-2-(2-(4-(3-(4-(((1r,3r)-3-(4-cyano-3-(trifluoromethyl)phenoxy)-2,2,4,4-tetramethylcyclobutyl)carbamoyl)phenyl)propy)piperazin-1-yl)acetamido)-3,3-dimethylbutanoyl)-4-hydroxy-N-((R)-(4-(4-methylthiazol-5-yl)phenyl)(oxetan-3-yl)methyl)pyrrolidine-2-carboxamide]: the DC50 under setting [1] is greater than 0.501 µM. Where the note is “VCaP, read-out: VCaP Dmax (%)”, the Dmax was less than 25%.
For `Cc1ncsc1-c1ccc([C@@H](NC(=O)[C@@H]2C[C@@H](O)CN2C(=O)[C@@H](NC(=O)CN2CCN(CCCc3ccc(C(=O)N[C@H]4C(C)(C)[C@H](Oc5ccc(C#N)c(C(F)(F)F)c5)C4(C)C)cc3)CC2)C(C)(C)C)C2COC2)cc1` [Example 713, (2S,4R)-1-((S)-2-(2-(4-(3-(4-(((1r,3r)-3-(4-cyano-3-(trifluoromethyl)phenoxy)-2,2,4,4-tetramethylcyclobutyl)carbamoyl)phenyl)propyl)piperazin-1-yl)acetamido)-3,3-dimethylbutanoyl)-4-hydroxy-N-((S)-(4-(4-methylthiazol-5-yl)phenyl)(oxetan-3-yl)methyl)pyrrolidine-2-carboxamide] the same measures were less than 0.05 µM and less than 25%.
In the case of `Cc1ncsc1-c1ccc([C@H](C)NC(=O)[C@@H]2C[C@@H](O)CN2C(=O)[C@@H](NC(=O)CCCN(C)[C@H](C(=O)N[C@H](C(=O)N(C)CCOc2ccc(N3C(=S)N(c4ccc(C#N)c(C(F)(F)F)c4)C(=O)C3(C)C)cc2)C(C)C)C(C)C)C(C)(C)C)cc1` [Example 714, (2S,4R)-1-((5S,8S,15S)-15-(tert-butyl)-1-(4-(3-(4-cyano-3-(trifluoromethyl)phenyl)-5,5-dimethyl-4-oxo-2-thioxoimidazolidin-1-yl)phenoxy)-5,8-diisopropyl-3,9-dimethyl-4,7,13-trioxo-3,6,9,14-tetraazahexadecan-16-oyl)-4-hydroxy-N-((S)-1-(4-(4-methylthiazol-5-yl)phenyl)ethyl)pyrrolidine-2-carboxamide], the Dmax (VCaP, read-out: VCaP Dmax (%)) is less than 25%. Moreover, the DC50 (read-out: VCaP DC50; VCaP cells; Table 36) was greater than 0.501 µM.
For `Cc1ncsc1-c1ccc([C@H](C)NC(=O)[C@@H]2C[C@@H](O)CN2C(=O)[C@@H](NC(=O)CN2CCN(CCCN3CCN(c4ccc(C(=O)N[C@H]5C(C)(C)[C@H](Oc6ccc(C#N)c(C#N)c6)C5(C)C)cn4)CC3)CC2)C(C)(C)C)cc1` [Example 715, N-((1r,3r)-3-(3,4-dicyanophenoxy)-2,2,4,4-tetramethylcyclobutyl)-6-(4-(3-(4-(2-(((S)-1-((2S,4R)-4-hydroxy-2-(((S)-1-(4-(4-methylthiazol-5-yl)phenyl)ethyl)carbam-oyl)pyrrolidin-1-yl)-3,3-dimethyl-1-oxobutan-2-yl)amino)-2-oxoethyl)piperazin-1-yl)propyl)piperazin-1-yl)nicotinamide], under setting [1], the DC50 was less than 0.05 µM. Besides, under setting [3], the greatest degradation seen (Dmax) is 51 to 70%.
`Cc1nc(O[C@H]2C(C)(C)[C@H](NC(=O)c3ccc(N4CCN(CCCN5CCN(CC(=O)O[C@H](C(=O)N6C[C@H](O)C[C@H]6C(=O)N[C@@H](C)c6ccc(-c7scnc7C)cc6)C(C)(C)C)CC5)CC4)nc3)C2(C)C)ccc1C#N` [Example 716, N-((1r,3r)-3-((5-cyano-6-methylpyridin-2-yl)oxy)-2,2,4,4-tetramethylcyclobutyl)-6-(4-(3-(4-(2-(((S)-1-((2S,4R)-4-hydroxy-2-(((S)-1-(4-(4-methylthiazol-5-yl)phenyl)ethyl)carbam-oyl)pyrrolidin-1-yl)-3,3-dimethyl-1-oxobutan-2-yl)amino)-2-oxoethyl)piperazin-1-yl)propyl)piperazin-1-yl)nicotinamdie]: under setting [1], the DC50 was greater than 0.501 µM. Further, the Dmax under setting [2] is 26 to 50%.
As to `Cc1ncsc1-c1ccc([C@H](C)NC(=O)[C@@H]2C[C@@H](O)CN2C(=O)[C@@H](NC(=O)CN2CCN(CCCN3CCN(c4ccc(C(=O)N[C@H]5C(C)(C)[C@H](Oc6ccc(C#N)c(Cl)c6)C5(C)C)cn4)CC3)CC2)C(C)(C)C)cc1` [Example 717, N-((1r,3r)-3-(3-chloro-4-cyanophenoxy)-2,2,4,4-tetramethylcyclobutyl)-6-(4-(3-(4-(2-(((S)-1-((2S,4R)-4-hydroxy-2-(((S)-1-(4-(4-methylthiazol-5-yl)phenyl)ethyl)carbam-oyl)pyrrolidin-1-yl)-3,3-dimethyl-1-oxobutan-2-yl)amino)-2-oxoethyl)piperazin-1-yl)propyl)piperazin-1-yl)nicotinamide], under setting [1], the DC50 is less than 0.05 µM. The Dmax (VCaP, read-out: VCaP Dmax (%)) lay within 51 to 70%.
For `CO[C@@H]1C[C@@H](C(=O)N(C)Cc2ccc(-c3scnc3C)cc2)N(C(=O)[C@@H](N(C)C(=O)COCCCCCN(C)c2ccc(C(=O)N[C@H]3C(C)(C)[C@H](Oc4ccc(C#N)c(C(F)(F)F)c4)C3(C)C)nc2)C(C)(C)C)C1` [Example 718, N-((1r,3r)-3-(4-cyano-3-(trifluoromethyl)phenoxy)-2,2,4,4-tetramethylcyclobutyl)-5-((5-(2-(((S)-1-((2S,4R)-4-methoxy-2-(methyl(4-(4-methylthiazol-5-yl)benzyl)carbamoyl)pyrrolidin-1-yl)-3,3-dimethyl-1-oxobutan-2-yl)(methyl)amino)-2-oxoethoxy)pentyl)(meth-yl)amino)picolinamide], under setting [1], the DC50 is greater than 0.501 µM. Further, the Dmax under setting [2] is less than 25%.
With `Cc1ncsc1-c1ccc([C@H](C)NC(=O)[C@@H]2C[C@@H](O)CN2C(=O)[C@@H](NC(=O)COCCc2cn(-c3ccc(C(=O)N[C@H]4C(C)(C)[C@H](Oc5ccc(C#N)c(C(F)(F)F)c5)C4(C)C)cc3)nn2)C(C)(C)C)cc1` [Example 719, (2S,4R)-1-((S)-2-(2-(2-(1-(4-(((1r,3r)-3-(4-cyano-3-(trifluoromethyl)phenoxy)-2,2,4,4-tetramethylcyclobutyl)carbamoyl)phenyl)-1H-1,2,3-triazol-4-yl)ethoxy)acetamido)-3,3-dimethylbutanoyl)-4-hydroxy-N-((S)-1-(4-(4-methylthiazol-5-yl)phenyl)ethyl)pyrrolidine-2-carboxamide], the DC50 under setting [1] is less than 0.05 µM. Besides, the Dmax under setting [3] was greater than 71%.
